In the supplement of paper PMC11061612:

Columns and labels:
[1] = test system: SCC-15 (Oral Cavity Carcinoma); experiment: Bliss excess, mean over the matrix (fraction); higher = more synergy
Procedure, shortened: (§1)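 Cell lines in DMEM/F12 or RPMI with 10% FBS were plated in 1536-well plates, held 24 hours at 37°C, 5% CO2, then given two-drug dose matrices for 72 hours (DMSO typically 0.2%). Viability was read by CellTiter-Glo 2.0 luminescence and scaled as inhibition from 0 (vehicle wells) to 1 (blank wells). Combination Emax is the second-highest inhibition in the matrix; Bliss excess is observed combination effect minus expected EA + EB − EA·EB, EA and EB being single-agent effects.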

[2] = test system: KMOE-2 (Acute Myeloid Leukemia); experiment: as above
Procedure, shortened: as §1

[3] = test system: TE-1 (Esophageal Squamous Cell Carcinoma); experiment: as above
Procedure, shortened: as §1

[4] = test system: NEC8 (Other Solid Carcinomas); experiment: as above
Procedure, shortened: as §1

[5] = test system: OE19 (Esophageal Adenocarcinoma); experiment: as above
Procedure, shortened: as §1

[6] = test system: HGC-27 (Gastric Carcinoma); experiment: as above
Procedure, shortened: as §1

[7] = test system: NCI-H1915 (Non-Small Cell Lung Carcinoma); experiment: as above
Procedure, shortened: as §1

[8] = test system: C-4-I (Cervical Carcinoma); experiment: as above
Procedure, shortened: as §1

PWR-1E (Non-Cancerous) [9] = experiment: as above
Procedure, shortened: as §1

[10] = test system: SU8686 (Pancreatic Carcinoma); experiment: as above
Procedure, shortened: as §1

[11] = test system: OVCAR-4 (Ovarian Carcinoma); experiment: as above
Procedure, shortened: as §1

[12] = test system: VA-ES-BJ (Other Solid Carcinomas); experiment: as above
Procedure, shortened: as §1

[13] = test system: HOP-62 (Lung Adenocarcinoma); experiment: as above
Procedure, shortened: as §1

[14] = test system: NUGC-3 (Gastric Carcinoma); experiment: as above
Procedure, shortened: as §1

[15] = test system: HSC-4 (Oral Cavity Carcinoma); experiment: as above
Procedure, shortened: as §1

[16] = test system: OSC-20 (Oral Cavity Carcinoma); experiment: as above
Procedure, shortened: as §1

[17] = test system: SCC-15 (Oral Cavity Carcinoma); experiment: combination Emax (second highest fraction inhibited in the dose matrix, 72 h); higher = more inhibition; extreme values may be limits of the assay
Procedure, shortened: as §1

[18] = test system: KMOE-2 (Acute Myeloid Leukemia); experiment: as above
Procedure, shortened: as §1

[19] = test system: TE-1 (Esophageal Squamous Cell Carcinoma); experiment: as above
Procedure, shortened: as §1

[20] = test system: NEC8 (Other Solid Carcinomas); experiment: as above
Procedure, shortened: as §1

[21] = test system: OE19 (Esophageal Adenocarcinoma); experiment: as above
Procedure, shortened: as §1

[22] = test system: HGC-27 (Gastric Carcinoma); experiment: as above
Procedure, shortened: as §1

[23] = test system: NCI-H1915 (Non-Small Cell Lung Carcinoma); experiment: as above
Procedure, shortened: as §1

[24] = test system: C-4-I (Cervical Carcinoma); experiment: as above
Procedure, shortened: as §1

PWR-1E (Non-Cancerous) [25] = experiment: as above
Procedure, shortened: as §1

[26] = test system: SU8686 (Pancreatic Carcinoma); experiment: as above
Procedure, shortened: as §1

[27] = test system: OVCAR-4 (Ovarian Carcinoma); experiment: as above
Procedure, shortened: as §1

[28] = test system: VA-ES-BJ (Other Solid Carcinomas); experiment: as above
Procedure, shortened: as §1

[29] = test system: HOP-62 (Lung Adenocarcinoma); experiment: as above
Procedure, shortened: as §1

[30] = test system: NUGC-3 (Gastric Carcinoma); experiment: as above
Procedure, shortened: as §1

[31] = test system: HSC-4 (Oral Cavity Carcinoma); experiment: as above
Procedure, shortened: as §1

[32] = test system: OSC-20 (Oral Cavity Carcinoma); experiment: as above
Procedure, shortened: as §1
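Throughout, for Bliss excess, mean over the matrix: after 72 h of two-drug dosing.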

| SMILES | Bliss excess [1] | Bliss excess [2] | Bliss excess [3] | Bliss excess [4] | Bliss excess [5] | Bliss excess [6] | Bliss excess [7] | Bliss excess [8] | Bliss excess (PWR-1E (Non-Cancerous) [9]) | Bliss excess [10] | Bliss excess [11] | Bliss excess [12] | Bliss excess [13] | Bliss excess [14] | Bliss excess [15] | Bliss excess [16] | combination Emax [17] | combination Emax [18] | combination Emax [19] | combination Emax [20] | combination Emax [21] | combination Emax [22] | combination Emax [23] | combination Emax [24] | combination Emax (PWR-1E (Non-Cancerous) [25]) | combination Emax [26] | combination Emax [27] | combination Emax [28] | combination Emax [29] | combination Emax [30] | combination Emax [31] | combination Emax [32] |
| --- | --- | --- | --- | --- | --- | --- | --- | --- | --- | --- | --- | --- | --- | --- | --- | --- | --- | --- | --- | --- | --- | --- | --- | --- | --- | --- | --- | --- | --- | --- | --- | --- |
| CC(=O)c1c(C)c2cnc(Nc3ccc(N4CCNCC4)cn3)nc2n(C2CCCC2)c1=O [Palbociclib] + CN(CC[C@H](CSC1=CC=CC=C1)NC2=C(C=C(C=C2)S(=O)(=O)NC(=O)C3=CC=C(C=C3)N4CCC(CC4)[C@H](C5=CC=CC=C5C6=CC=C(C=C6)Cl)O)S(=O)(=O)C(F)(F)F)CCO [AZD4320] (first compound max 10 µM, 7x7, partner max 1 µM) | -0.0694 | -0.0213 | -0.0322 | -0.0337 | -0.0369 | 0.0123 | -0.0273 | -0.0686 | -0.0204 | -0.0447 | -0.0354 | -0.0288 | -0.0777 | -0.0659 | -0.0833 | -0.0381 | 0.206 | 0.96 | 0.439 | 0.209 | 0.467 | 0.764 | 0.491 | 0.372 | 0.278 | 0.0398 | 0.22 | 0.309 | 0.332 | 0.714 | 0.0868 | 0.182 |
| C[C@@H](c1ccc2nccn2c1)n1nnc2ncc(-c3cnn(C)c3)nc21 [Savolitinib] + CN(CC[C@H](CSC1=CC=CC=C1)NC2=C(C=C(C=C2)S(=O)(=O)NC(=O)C3=CC=C(C=C3)N4CCC(CC4)[C@H](C5=CC=CC=C5C6=CC=C(C=C6)Cl)O)S(=O)(=O)C(F)(F)F)CCO [AZD4320] (first compound max 1 µM, 7x7, partner max 1 µM) | -0.0604 | -0.0537 | -0.0316 | -0.0021 | -0.0091 | -0.0098 | -0.0519 | -0.0399 | -0.0221 | -0.0255 | -0.0293 | -0.029 | -0.0729 | -0.0429 | -0.0591 | -0.0626 | 0.29 | 0.59 | 0.289 | 0.302 | 0.22 | 0.233 | 0.132 | 0.234 | 0.211 | 0.173 | 0.126 | 0.182 | 0.122 | 0.279 | 0.24 | 0.129 |
| COc1nnc2ccc(N3CCC(c4ccc(OCCN5CCN(C)C(=O)[C@H]5C)cc4)CC3)nn12 [AZD5153] + CN(CC[C@H](CSC1=CC=CC=C1)NC2=C(C=C(C=C2)S(=O)(=O)NC(=O)C3=CC=C(C=C3)N4CCC(CC4)[C@H](C5=CC=CC=C5C6=CC=C(C=C6)Cl)O)S(=O)(=O)C(F)(F)F)CCO [AZD4320] (first compound max 1 µM, 7x7, partner max 1 µM) | 0.001 | 0.0295 | -0.0193 | 0.0236 | 0.0208 | -0.0329 | 0.0678 | 0.0692 | 0.0243 | -0.0373 | 0.0377 | 0.0839 | 0.011 | 0.0423 | -0.0287 | -0.0543 | 0.39 | 0.993 | 0.485 | 0.962 | 0.501 | 0.772 | 0.57 | 0.762 | 0.714 | 0.0559 | 0.458 | 0.517 | 0.635 | 0.639 | 0.217 | 0.132 |
